# Measured values published in ChEMBL document CHEMBL3638563, “Quinazoline compounds as kinase inhibitors” (2014).
# How the values were obtained:
# [1] = molecular target: Serine/threonine-protein kinase B-raf (Homo sapiens, UniProt P15056); assay: (§1) Kinase Assay: Inhibition of kinase activity by test compound disclosed herein was estimated by quantifying the amount of [33P] incorporation of substrate in the presence of test compound. Standard assay conditions were 2 ng of recombinant C-Raf or 5 ng of recombinant B-Raf or 5 ng of recombinant B-Raf (V600E) kinase (Upstate Biotechnology) with 500 ng MEK1(K97R) in assay buffer {8 μM ATP, 0.5 μCi [33P]ATP (specific activity 3000 Ci/mmol, PerkinElmer), 50 mM Tris/HCl (pH7.5), and 1 mM EGTA, 1 mM Na3VO4, 1% 2-mercaptoethanol, 0.1% Brij 35, and 0.2 mg/ml BSA} at a final volume of 25 μL. Reactions were incubated at 30° C. for 30 min and stopped by adding 3% phosphoric acid, harvested onto a 96-well GF/B UniFilter (PerkinElmer) using a unifilter harvester (PerkinElmer), and counted with a TopCount microplate scintillation counter (PerkinElmer). The IC50 values of inhibitors were determined after carrying out assays at 3-fold serially diluted concentrations of each compound in duplication.
# Chain of Serine/threonine-protein kinase B-raf (P15056 whole entry): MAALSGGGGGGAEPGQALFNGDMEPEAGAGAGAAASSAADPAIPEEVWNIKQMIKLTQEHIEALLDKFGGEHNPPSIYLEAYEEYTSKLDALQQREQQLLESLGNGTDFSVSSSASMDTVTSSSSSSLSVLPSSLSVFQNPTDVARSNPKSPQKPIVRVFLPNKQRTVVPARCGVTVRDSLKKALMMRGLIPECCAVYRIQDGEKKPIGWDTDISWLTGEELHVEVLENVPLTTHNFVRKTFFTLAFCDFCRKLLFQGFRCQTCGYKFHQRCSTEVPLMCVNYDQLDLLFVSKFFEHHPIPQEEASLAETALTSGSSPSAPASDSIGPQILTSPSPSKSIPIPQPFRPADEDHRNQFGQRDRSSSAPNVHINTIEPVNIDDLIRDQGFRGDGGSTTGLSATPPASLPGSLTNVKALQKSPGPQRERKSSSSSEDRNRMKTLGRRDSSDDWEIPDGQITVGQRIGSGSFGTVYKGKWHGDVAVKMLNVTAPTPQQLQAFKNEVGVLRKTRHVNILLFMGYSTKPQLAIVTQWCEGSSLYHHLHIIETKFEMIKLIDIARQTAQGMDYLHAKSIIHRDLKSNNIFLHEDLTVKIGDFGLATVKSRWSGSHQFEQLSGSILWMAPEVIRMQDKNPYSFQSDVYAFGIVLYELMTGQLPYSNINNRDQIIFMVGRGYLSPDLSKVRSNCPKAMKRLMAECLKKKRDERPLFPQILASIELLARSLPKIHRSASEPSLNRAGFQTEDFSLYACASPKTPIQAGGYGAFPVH
# [2] = molecular target: RAF proto-oncogene serine/threonine-protein kinase (Homo sapiens, UniProt P04049); assay: as §1
# Chain of RAF proto-oncogene serine/threonine-protein kinase (P04049 whole entry): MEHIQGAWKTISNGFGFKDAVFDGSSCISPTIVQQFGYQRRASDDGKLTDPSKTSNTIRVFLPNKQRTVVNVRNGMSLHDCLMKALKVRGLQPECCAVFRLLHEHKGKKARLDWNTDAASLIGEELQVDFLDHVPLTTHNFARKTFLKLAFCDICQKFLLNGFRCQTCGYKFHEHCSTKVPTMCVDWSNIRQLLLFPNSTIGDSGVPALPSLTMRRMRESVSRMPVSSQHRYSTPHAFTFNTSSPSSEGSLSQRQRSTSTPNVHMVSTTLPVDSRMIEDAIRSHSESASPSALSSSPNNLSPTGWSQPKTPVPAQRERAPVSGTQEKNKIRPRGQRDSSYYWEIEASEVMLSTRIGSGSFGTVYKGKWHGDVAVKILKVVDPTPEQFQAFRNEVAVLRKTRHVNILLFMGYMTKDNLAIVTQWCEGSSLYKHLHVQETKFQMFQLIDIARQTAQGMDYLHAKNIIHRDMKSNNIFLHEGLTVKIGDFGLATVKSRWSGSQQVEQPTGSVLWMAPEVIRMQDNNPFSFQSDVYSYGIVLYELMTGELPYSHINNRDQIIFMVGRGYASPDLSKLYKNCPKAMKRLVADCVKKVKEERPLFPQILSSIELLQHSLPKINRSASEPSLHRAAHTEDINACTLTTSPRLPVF
smiles,measurement,setting,value
Nc1ccc(F)c(-c2ccc3ncnc(Nc4cccc5[nH]ncc45)c3c2)c1,IC50,[1],251 nM
same,IC50,[2],2370 nM
